Results published in paper PMC9837997, “Purification, Characterization and anticancer activity of L-methionine γ-lyase from thermo-tolerant Aspergillus fumigatus” (Microbial Cell Factories, 2023).

Test system: T1, L-methionine γ-lyase (MGL); A. fumigatus L-methioninase
T1 construct: native extracellular enzyme purified from culture supernatant (heat treatment, Sephadex G-100); about 46 kDa on SDS-PAGE; homodimer
Assay: DTNB assay of released methanethiol at […] nm, Lineweaver-Burk plot
Assay type: biochemical, Aspergillus fumigatus
Conditions: 0.05 M potassium phosphate pH 7.0, 0.01 mM PLP, 0.25 mM DTNB, 30 °C; read-out: apparent Km

## CSCC[C@H](N)C(=O)O [L-methionine]
  Km: 20.6 mM
